Assay results reported in patent US20240099343A1, “USE OF GINGERDIOL COMPOUNDS TO ENHANCE FLAVOR” (Firmenich SA, priority 2021, published 2024).

Columns and labels:
[1] = Sensory testing with salt reduction, meat flavoring formulation, panel of three expert tasters; type: in vivo; details: 20% reduced salt (0.646%) with 1 ppm compound, scale from 1 to 10
Method: Further sensory testing was carried out using a panel of three (3) expert tasters, who rated the taste of a meat flavoring formulation with: (a) a normal amount of salt ([…]); (b) 20% reduced salt (0.646%); and (c) 20% reduced salt (0.646%) with 1 ppm [6]-gingerdiol-diacetate. The panelists rated the soups for salt intensity, umami intensity, bitter intensity, and overall liking on a scale from 1 to 10.

[2] = Sensory testing with salt reduction, mushroom-based cream soup, panel of four expert tasters; type: in vivo; details: 20% reduced salt (0.684%) with 1 ppm compound, scale from 1 to 10
Method: Sensory testing was carried out using a panel of four (4) expert tasters, who rated the taste of the a mushroom-based cream soup with: (a) a normal amount of salt (0.855%); (b) 20% reduced salt (0.684%); and (c) 20% reduced salt (0.684%) with 1 ppm [6]-gingerdiol-diacetate. The panelists rated the soups for salt intensity, umami intensity, bitter intensity, and overall liking on a scale from 1 to 10.

Compound: CCCCCC(CC(CCc1ccc(O)c(OC)c1)OC(C)=O)OC(C)=O (centres unmarked) [Gingerdiol, [6]-gingerdiol-diacetate]
- Bitter (bitter intensity) [1]: 2.3
- Overall Liking [1]: 5.0
- Saltiness (salt intensity) [1]: 5.3
- Umami (umami intensity) [1]: 4.0
- Bitter (bitter intensity) [2]: 0.0
- Overall Liking [2]: 2.3
- Saltiness (salt intensity) [2]: 3.3
- Umami (umami intensity) [2]: 3.0
